From patent US8173133B2, “Acyl pseudodipeptides which carry a functionalized auxiliary arm” (OM Pharma, priority 1999, dated 2012)
≈ marks a conversion by molar mass, not a printed value. Like-named read-outs stand apart in the source and are kept apart here.

Key:
[1] = system: predendritic cells (DC-6); assay: dendritic cell differentiation test: FITC-Dextran take-up; format: cell-based, human; settings: for Dextran % CD: products redissolved in pyrogen-free water, % of dendritic cells; for Dextran Fluorescence: mean fluorescence value; for concentration inducing differentiation of DC-6 cells into DC-9 cells: summary of phagocytosis and marker data
Experimental: The ability of products of the invention to induce maturation of predendritic cells into dendritic cells was assessed. The following parameters were measured: FITC-Dextran conjugate take-up and expression of CD83, CD86 surface markers.
Mononucleated cells of peripheral blood are isolated from buffy coats of healthy donors. Purified monocytes by adherence selection are resuspended in RPMI-1640 medium containing 10% of foetal calf serum (FCS), GM-CSF and IL-4 (10 ng/ml) at a density of 1×10^6 cells/ml. Cells are divided into Petri Dishes (10×10^6 cells per dish) and cultured for 6 days with a change to fresh medium after 3 days. Cells thus obtained are called predendritic cells (DC-6). Maturation of predendritic cells into mature dendritic cells is achieved by incubating cells with diluted solutions of the products or LPS (positive control) for 3 more days (see product section below). At day 9 (DC-9), cells are harvested and analyzed for different indicators of dendritic cell maturation: assessment of CD83, CD86 surface marker expression as well as of their ability to take up FITC-Dextran conjugate. All these parameters are analyzed by an EPICS-XL-MCL model FACS (Coulter Immunology, Hialeah, […]).
Expression of surface markers is given as % of mean fluorescence of LPS-activated cells (positive control); FITC-Dextran conjugate take-up rate is calculated based on take-up of cells maintained in basic medium and is expressed in %.
Solutions are incubated at 37° C. for 20 minutes, subjected to vigorous stirring during 3 minutes and then diluted to 100 μg/ml in RPMI-1640 culture medium and used in diluted state at concentrations ranging from 10 μg/ml to 0.03 μg/ml. Reference Product: E. coli lipopolysaccharide (LPS, DIFCO, Detroit, Mich., U.S.A.), as a 5 mg/ml stock solution in PBS. An intermediate 100 μg/ml solution is prepared in RPMI 1640 culture medium. Concentrations of dilute solutions being tested range from 1 μg/ml to 0.03 μg/ml.
In another series of experiments, all acyl dipeptide-like compounds were freeze-dried and directly redissolved into pyrogen-free water. Different products as well as LPS control are tested at a concentration of 10 μg/ml. Results are given as % of dendritic cells and mean fluorescence value for dextran phagocytosis or CD86 surface marker expression.
Immature dendritic cells (DC-6) resulting from monocyte differentiation, through the joint action of GM-CSF and IL-4, are able to incorporate FITC-Dextran conjugate. During the maturation process, cells lose their ability to incorporate the FITC-Dextran conjugate. Assays are conducted upon reaching the DC-9 differentiation stage.

[2] = system: Limulus Amoebocyte Lysate
[3] = system: murine macrophage cells; assay: nitric oxide production by murine macrophage cells (Griess); format: cell-based, C57/BL6 mice; settings: for Max concentration: concentration at maximum amplitude; for EC50 conc: concentration corresponding to 50% of maximum amplitude; for Min concentration: lowest concentration inducing a significant response
From the text: Six-week old male C57/BL6 mice are killed by CO2 inhalation. The hip, femur, tibia and posterior appendage bones are removed. The bone marrow is extracted from the bone lumen by injecting Dulbecco's Modified Eagle Medium (DH medium) from the end portions which had been excised. The stem cells are washed and resuspended (approximate cell concentration 4000 cells/ml) in DH medium supplemented with 20% equine serum (SH) and 30% L929 cell supernatant. L929 is a murine fibroblast cell line the supernatant fluid of which is rich in growth factor for macrophage cells (M-CSF). The cell suspension is divided into Petri dishes which are incubated for 8 days in an incubator at 37° C. under 8% CO2 and a moisture saturated atmosphere.
After 8 days, the stem cells have differentiated into mature macrophage cells. The macrophage cells are scraped off by rapid cooling, washed and resuspended in DH medium supplemented with 5% foetal calf serum (FCS), amino acids and antibiotics. The cell density is adjusted to 700 000 cells/ml.
Products previously dissolved in DH medium supplemented with 5% FCS, amino acids and antibiotics are serially diluted directly in microtiter plates. The products are tested in triplicates and each microtiter plate comprises a negative control containing plain medium. The final volume in each well is 100 μl.
100 μl of cell suspension are added to diluted solutions of such products and the cells are incubated for 22 hours in an incubator at 37° C., under 8% CO2 and a moisture saturated atmosphere. At the end of the incubation period with the products, 100 μl of supernatant are withdrawn and the nitrite concentration is determined by running a Griess reaction.
100 μl of Griess reagent (5 mg/ml of sulfanilamide+0.5 mg/ml of N-(1-naphtylethylene diamine hydrochloride)) in 2.5% aq. phosphoric acid, are added to each well. The microtiter plates are read with a spectrophotometer at 562 nm wavelength against a reference sample at 690 nm. The nitrite concentration is proportional to nitric oxide content being formed. The nitrite content is determined based on a standard curve.
The results are given as mean value±standard deviation and plotted as a dose versus response curve.
From this dose versus response curve, 3 curve variables are computed:
Max: maximum curve amplitude and corresponding concentration
EC50: concentration corresponding to 50% of maximum amplitude
Min: lowest concentration inducing a significant proliferation corresponding to the blank±3× standard deviation value
Concentration values corresponding to EC50 and Min are determined from line segments joining different points on the curve.
If the curve has no plateau phase but an ascending configuration for the highest concentration being tested, a “>” sign is shown before “Max” and “EC50” values.

Row | Structure (SMILES) | Dextran % CD ([1]; 10 μg/ml) [%] | Dextran Fluorescence ([1]; 10 μg/ml) | LAL EU/mg of product [2] | LAL ng of LPS equivalent per mg of product [2] | Max concentration [3] [µg/mL] | EC50 conc [3] [µg/mL] | Min concentration [3] [µg/mL] | effect on maturation of dendritic cells ([1]; 0.03 to 10 μg/ml) | concentration inducing differentiation of DC-6 cells into DC-9 cells [1] | phagocytic capacity retained (% incorporation of FITC-Dextran of unchallenged cells) ([1]; DC-9 stage, FIG. 74) [%] | concentration required to induce full decrease of Dextran take-up ([1]; FIG. 74) | nitric oxide production [3] | ability to induce differentiation of predendritic cells into dendritic cells ([1]; 10 μg/ml) | LAL ng of LPS equivalent per mg of product ([2]; 1 EU = 0.08 ng E. coli 055:B5 LPS) | LAL EU/mg of product ([2]; acyl-dipeptide-like compounds, diluted 0.1 mg/ml solution)
1 | CCCCCCCCCCCC(=O)O[C@H](CCCCCCCCCCC)CC(=O)N[C@H](CC(=O)N[C@@H](CCCCN)C(=O)O)C(=O)NCCC[C@H](CO)NC(=O)C[C@H](O)CCCCCCCCCCC [OM-197-Lys] | 12.1 | 0.5 | 3 EU/mg of product | 0.24 ng of LPS equivalent per mg of product | 40 | 2.23 (≈ 2.24 µM) | < 0.47 |  |  |  |  |  |  |  | 
2 | CCCCCCCCCCCC(=O)O[C@H](CCCCCCCCCCC)CC(=O)N[C@H](CC(=O)NCCCN)C(=O)NCCC[C@H](CO)NC(=O)C[C@H](O)CCCCCCCCCCC [OM-197-AP, N—[(R)-3-dodecanoyloxytetradecanoyl]-D-aspartic acid, α-N-{(4R)-5-hydroxy-4-[(R)-3-hydroxy-tetradecanoylamino]pentyl}-amide β-N-(3-aminopropyl)amide] | 56.1 | 4.4 | <0.5 EU/mg of product | <0.04 ng of LPS equivalent per mg of product | > 100 | > 13.69 | 1.87 |  |  |  |  |  |  |  | 
3 | CCCCCCCCCCCC(=O)O[C@H](CCCCCCCCCCC)CC(=O)N[C@H](CC(=O)O)C(=O)NCCC[C@H](COC(=O)CCCCC(O)CO)NC(=O)C[C@H](O)CCCCCCCCCCC (stereo partly drawn) [OM-197-MC-FV5, N—[(R)-3-dodecanoyloxytetradecanoylamino]-D-aspartic acid, α-N-{(4R)-5-hydroxy-4-[(R)-3-hydroxytetra-decanoylamino]-pentyl}amide 5-O-(6,7-dihydroxyheptanoate)] | 86.5 | 6.4 | 49.3 EU/mg of product | 3.9 ng of LPS equivalent per mg of product | 16 | 2.56 (≈ 2.53 µM) | 0.67 |  |  |  |  |  |  |  | 
4 | CCCCCCCCCCCC(=O)O[C@H](CCCCCCCCCCC)CC(=O)NC(CCOP(=O)(O)O)C(=O)NCCCC(COC(=O)CCCCC(O)CO)NC(=O)C[C@H](O)CCCCCCCCCCC (stereo partly drawn) [OM-197-FV6, 3-[(R)-dodecanoyloxytetradecanoylamino]-4oxo-5-aza-9-[(R)-3-hydroxytetradecanoylamino]-decan-1,10-diol 1-dihydrogenphate 10-(6,7-dihydroxyheptanoate)] | 84.5 | 6.3 | 540 EU/mg of product | 43 ng of LPS equivalent per mg of product | 25.6 | 1.49 (≈ 1.38 µM) | 0.20 | apparently no effect | totally lack such an activity |  |  |  |  |  | 
5 | CCCCCCCCCCCC(=O)O[C@H](CCCCCCCCCCC)CC(=O)N[C@H](CC(=O)N[C@@H](CC(=O)O)C(=O)O)C(=O)NCCC[C@H](CO)NC(=O)C[C@H](O)CCCCCCCCCCC [OM-197-Asp, N—[(R)-3-dodecanoyloxytetradecanoyl]-D-aspartic acid, α-N-{(4R)-5-hydroxy-4-[(R)-3-hydroxytetradecanoylamino]-pentyl}Amide β-N-[(1S)-1,2-Dicarboxyethyl]Amide] | 26.4 | 2.4 | <2.5 EU/mg of product | <0.2 ng of LPS equivalent per mg of product | 51 | 0.95 (≈ 0.966 µM) | 0.086 |  |  |  |  |  |  |  | 
6 | CCCCCCCCCCCC(=O)O[C@H](CCCCCCCCCCC)CC(=O)N[C@H](CC(=O)N[C@@H](CCCCN)C(=O)O)C(=O)NCCC[C@H](COC(=O)CCCCCN)NC(=O)C[C@H](O)CCCCCCCCCCC [OM-197-Lys-AC] | 92.2 | 6.8 | <2.5 EU/mg of product | <0.2 ng of LPS equivalent per mg of product | > 50 | > 11.06 | 1.46 |  |  |  |  |  |  |  | 
7 | CCCCCCCCCCCC(=O)O[C@H](CCCCCCCCCCC)CC(=O)N[C@H](CC(=O)O)C(=O)NCCC[C@H](COC(=O)CCC(=O)O)NC(=O)C[C@H](O)CCCCCCCCCCC [OM-197-MC-Succ] | 35.5 | 3.0 | 5.3 EU/mg of product | 0.42 ng of LPS equivalent per mg of product | 16 | 0.89 (≈ 0.919 µM) | 0.22 |  |  |  |  |  |  |  | 
8 | CCCCCCCCCCCC(=O)O[C@H](CCCCCCCCCCC)CC(=O)NC(CCOP(=O)(O)O)C(=O)NCCC[C@H](COC(=O)CCCCCN)NC(=O)C[C@H](O)CCCCCCCCCCC (mixture of isomers) [OM-197-MP-AC (R/S, R), (3RS,9R)-3-[(R)-3-dodecanoyloxytetradecanoylamino]-4oxo-5-aza-9-[(R)-3-hydroxytetradecanoylamino]-decan-10-ol 1-dihydrogen-phosphate(6-aminohexanoate)] | 84.6 | 6.3 | 0.14 EU/mg of product | 0.011 ng of LPS equivalent per mg of product | > 100 | > 10.69 | 1.04 |  | 0.1 µg/mL | 22 | at least 1 μg/ml | higher proliferation response as compared to positive control |  |  | 
9 | CCCCCCCCCCCC(=O)O[C@H](CCCCCCCCCCC)CC(=O)N[C@H](CC(=O)O)C(=O)NCCC[C@H](COC(=O)CCCCCNC(=O)CCC(=O)OC[C@H]1O[C@@H](n2cc(C)c(=O)[nH]c2=O)C[C@@H]1N=[N+]=[N-])NC(=O)C[C@H](O)CCCCCCCCCCC [OM-197-MC-AC-Succ-AZT] | 62.2 | 4.8 |  |  | > 100 | > 74.89 | 55.98 |  |  |  |  |  | significant ability to induce differentiation into dendritic cells | 0.11 ng of LPS equivalent per mg of product | 1.34 EU/mg of product
